# Measured values: patent publication US10793885B2, “Compositions and methods for making noscapine and synthesis intermediates thereof” (priority 2013, dated 2020)
# Tests used:
# CXE1 = biological target: T1, CXE1 (Papaver somniferum, UniProt I3PLR2); test: In vitro CXE1 assay with purified recombinant protein; type: biochemical; conditions: native recombinant CXE1, pH 8.0, 30° C., 15 min
# T1 construct: corresponding open reading frames were amplified using cDNA derived from total stem RNA of the Bea's Choice chemotype; His-tag (pRSETA leader) (N); made in house; host or cells: Escherichia coli Rosetta (DE3) pLysS
# T1 sequence (I3PLR2 1-320): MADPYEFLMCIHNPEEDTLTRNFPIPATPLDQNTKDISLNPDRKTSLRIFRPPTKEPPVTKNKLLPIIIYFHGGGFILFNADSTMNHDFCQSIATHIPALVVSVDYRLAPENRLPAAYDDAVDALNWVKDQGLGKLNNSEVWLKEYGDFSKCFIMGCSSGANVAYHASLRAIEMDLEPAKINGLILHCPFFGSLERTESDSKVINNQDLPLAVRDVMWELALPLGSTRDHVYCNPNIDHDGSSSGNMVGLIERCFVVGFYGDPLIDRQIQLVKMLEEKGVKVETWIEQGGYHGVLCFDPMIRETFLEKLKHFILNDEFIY
# Description: (§1) The full-length coding region of CYP82X1 was amplified using cDNA derived from total stem RNA of the Bea's Choice chemotype using Takara Ex Taq DNA polymerase (Fisher Scientific, Ottawa, Canada), and using a primer 5′-[…]-3′ (SEQ ID NO: 607) and reverse primer 5′-[…]-3′ (SEQ ID NO: 608). Owing to problems with heterologous expression in yeast, CYP82X2 was synthesized with the first 60 N-terminal amino acids replaced with the first 43 N-terminal amino acids from the lettuce cytochrome P450 germacrene A oxidase Nguyen, D. T. et al. J. Biol. Chem. 285, 16588-16598 (2010). For heterologous expression of Flag-tagged CYPs in yeast (Saccharomyces cerevisiae), the full-length coding regions of CYP82X1 and CYP82X2 were inserted into the NotI and SpeI restriction sites of the dual plasmid pESC-leu2d::CPR Ro, D.-K., Ouellet, M., Paradise, E. M., Burd, H., Eng, D., Paddon, C. J., Newman, J. D., & Keesling, J. D. BMC Biotech. […] For heterologous expression of CXE1, CXE2, and AT1, corresponding open reading frames were amplified using cDNA derived from total stem RNA of the Bea's Choice chemotype and cloned in-frame an N-terminal His-tag sequence in the Escherichia coli expression vector pRSETA (Invitrogen, Carlsbad, Calif.). […] Microsomal fractions containing recombinant CYP82X1 or CYP82X2 were detected using a-FLAG antibodies, whereas recombinant CPR was detected using α-c-Myc antibodies (FIG. 12 A). […]
# CXE2 = biological target: T2, CXE2 (Papaver somniferum, UniProt A0A0A1EQ07); test: In vitro CXE2 assay with purified recombinant protein; type: biochemical; conditions: E. coli produced CXE2
# T2 construct: corresponding open reading frames were amplified using cDNA derived from total stem RNA of the Bea's Choice chemotype; His-tag (pRSETA leader) (N); made in house; host or cells: Escherichia coli Rosetta (DE3) pLysS
# T2 sequence (A0A0A1EQ07 1-313): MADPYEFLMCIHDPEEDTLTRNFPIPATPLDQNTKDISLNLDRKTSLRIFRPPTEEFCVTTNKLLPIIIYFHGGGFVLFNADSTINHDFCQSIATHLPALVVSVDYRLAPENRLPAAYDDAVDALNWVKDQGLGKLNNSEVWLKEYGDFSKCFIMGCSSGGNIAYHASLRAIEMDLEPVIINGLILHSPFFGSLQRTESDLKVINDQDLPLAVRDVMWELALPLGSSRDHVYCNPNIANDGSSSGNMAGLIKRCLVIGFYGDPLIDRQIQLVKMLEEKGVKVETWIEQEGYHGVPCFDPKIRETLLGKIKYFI
# Description: as §1
# CYP82X2 = biological target: T3, CYP82X2 (UniProt D5J9U8+I3PLR0); test: In vitro enzyme assay with yeast microsomal fractions containing CYP82X2 (CPR/82X2); type: biochemical, Papaver somniferum; conditions: yeast microsomes (CPR/82X2), extracted ion chromatograms, FIG. 13
# T3 construct: the full-length coding regions of CYP82X1 and CYP82X2 were inserted into the NotI and SpeI restriction sites; FLAG; made in house; host or cells: Saccharomyces cerevisiae YPL 154C:Pep4, microsomal fraction
# T3 sequence (D5J9U8+I3PLR0 with tags, fused parts or gaps): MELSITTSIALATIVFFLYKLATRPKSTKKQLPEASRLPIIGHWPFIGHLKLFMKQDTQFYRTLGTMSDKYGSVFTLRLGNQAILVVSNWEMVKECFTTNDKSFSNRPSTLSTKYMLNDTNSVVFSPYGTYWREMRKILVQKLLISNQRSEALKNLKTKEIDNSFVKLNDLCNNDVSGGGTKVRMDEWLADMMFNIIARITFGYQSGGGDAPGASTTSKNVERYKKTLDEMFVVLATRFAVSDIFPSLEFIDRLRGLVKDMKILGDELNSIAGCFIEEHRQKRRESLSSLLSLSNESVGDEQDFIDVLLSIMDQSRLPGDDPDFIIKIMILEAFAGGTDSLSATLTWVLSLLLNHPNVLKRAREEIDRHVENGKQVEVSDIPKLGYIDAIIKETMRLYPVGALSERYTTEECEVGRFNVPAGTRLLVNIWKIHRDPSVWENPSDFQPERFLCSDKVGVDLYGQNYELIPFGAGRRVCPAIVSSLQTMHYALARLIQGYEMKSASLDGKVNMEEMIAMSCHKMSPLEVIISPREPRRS
# Description: (§2) The full-length coding region of CYP82X1 was amplified using cDNA derived from total stem RNA of the Bea's Choice chemotype using Takara Ex Taq DNA polymerase (Fisher Scientific, Ottawa, Canada), and using a primer 5′-[…]-3′ (SEQ ID NO: 607) and reverse primer 5′-[…]-3′ (SEQ ID NO: 608). Owing to problems with heterologous expression in yeast, CYP82X2 was synthesized with the first 60 N-terminal amino acids replaced with the first 43 N-terminal amino acids from the lettuce cytochrome P450 germacrene A oxidase Nguyen, D. T. et al. J. Biol. Chem. 285, 16588-16598 (2010). For heterologous expression of Flag-tagged CYPs in yeast (Saccharomyces cerevisiae), the full-length coding regions of CYP82X1 and CYP82X2 were inserted into the NotI and SpeI restriction sites of the dual plasmid pESC-leu2d::CPR Ro, D.-K., Ouellet, M., Paradise, E. M., Burd, H., Eng, D., Paddon, C. J., Newman, J. D., & Keesling, J. D. BMC Biotech. 8, 83 (2008) yielding pESC-Leu2d::CYP82X1/CPR and pESC-Leu2d::CYP82X2/CPR. The protease-deficient yeast strain YPL 154C:Pep4 was transformed with pESC-Leu2d::CYP82X1/CPR and pESC-Leu2d::CYP82X2/CPR. Yeast culture, microsome preparation, and immunoblot analysis were performed as described previously Dang, T.-T. T. & Facchini, P. J. J. Biol. Chem. 289, 2013-2026 (2014). For heterologous expression of CXE1, CXE2, and AT1, corresponding open reading frames were amplified using cDNA derived from total stem RNA of the Bea's Choice chemotype and cloned in-frame an N-terminal His-tag sequence in the Escherichia coli expression vector pRSETA (Invitrogen, Carlsbad, Calif.). CXE1 and CXE2 were individually inserted into the SacI and HindIII restriction sties, whereas AT1 was inserted into the KpnI and HindIII sites, of pRSETA using a primer 5′-[…]-3′ (SEQ ID NO: 609) and reverse primer 5′-[…]-3′ (SEQ ID NO: 610). […] Microsomal fractions containing recombinant CYP82X1 or CYP82X2 were detected using a-FLAG antibodies, whereas recombinant CPR was detected using α-c-Myc antibodies (FIG. 12 A). […]
# CYP82X1 = biological target: T4, CYP82X1 (Papaver somniferum, UniProt I3V6B7); test: In vitro enzyme assay with yeast microsomal fractions containing CYP82X1 (CPR/82X1); type: biochemical; conditions: yeast microsomes (CPR/82X1), extracted ion chromatograms, FIG. 13
# T4 construct: The full-length coding region of CYP82X1 was amplified using cDNA derived from total stem RNA of the Bea's Choice chemotype; FLAG; made in house; host or cells: Saccharomyces cerevisiae YPL 154C:Pep4, microsomal fraction
# T4 sequence (I3V6B7 1-540): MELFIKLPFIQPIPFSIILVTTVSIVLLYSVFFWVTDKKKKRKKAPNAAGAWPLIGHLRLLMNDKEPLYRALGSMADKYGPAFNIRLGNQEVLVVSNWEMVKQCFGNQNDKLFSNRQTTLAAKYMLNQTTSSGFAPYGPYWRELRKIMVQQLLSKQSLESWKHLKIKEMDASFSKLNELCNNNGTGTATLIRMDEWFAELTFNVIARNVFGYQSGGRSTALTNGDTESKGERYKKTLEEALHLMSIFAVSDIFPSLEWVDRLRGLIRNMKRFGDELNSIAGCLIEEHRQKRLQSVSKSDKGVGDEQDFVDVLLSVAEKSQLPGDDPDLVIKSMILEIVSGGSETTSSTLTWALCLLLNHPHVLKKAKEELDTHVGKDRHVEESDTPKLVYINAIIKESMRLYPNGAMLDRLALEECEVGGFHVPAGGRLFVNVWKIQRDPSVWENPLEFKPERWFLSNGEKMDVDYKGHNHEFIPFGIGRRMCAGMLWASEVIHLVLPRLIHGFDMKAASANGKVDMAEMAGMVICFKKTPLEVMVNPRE
# Description: as §2
# AT1 = biological target: T5, AT1 (Papaver somniferum, UniProt I3PLR4); test: In vitro AT1 assay with purified recombinant protein; type: biochemical; conditions: native recombinant AT1, 50 μM acetyl-CoA, pH 8.0, 30° C., 15 min
# T5 construct: corresponding open reading frames were amplified using cDNA derived from total stem RNA of the Bea's Choice chemotype; His-tag (pRSETA leader) (N); made in house; host or cells: Escherichia coli Rosetta (DE3) pLysS
# T5 sequence (I3PLR4 1-471): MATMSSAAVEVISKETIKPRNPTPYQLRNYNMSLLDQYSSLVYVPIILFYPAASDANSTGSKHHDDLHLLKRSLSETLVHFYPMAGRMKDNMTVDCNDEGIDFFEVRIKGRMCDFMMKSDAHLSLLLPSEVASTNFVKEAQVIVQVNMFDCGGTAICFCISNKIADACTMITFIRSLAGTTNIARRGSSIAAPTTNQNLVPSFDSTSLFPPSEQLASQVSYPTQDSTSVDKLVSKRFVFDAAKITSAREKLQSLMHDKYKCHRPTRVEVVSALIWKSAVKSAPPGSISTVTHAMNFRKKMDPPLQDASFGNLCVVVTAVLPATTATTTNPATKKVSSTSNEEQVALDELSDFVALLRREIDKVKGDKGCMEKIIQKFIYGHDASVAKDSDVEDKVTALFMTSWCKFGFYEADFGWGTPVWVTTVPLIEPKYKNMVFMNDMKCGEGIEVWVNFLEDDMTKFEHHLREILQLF
# Description: as §1
SMILES,conversion as substrate by CXE1 (CXE1),conversion as substrate by CXE2 (CXE2),conversion as substrate by CYP82X2 (CYP82X2),conversion as substrate by CYP82X1 (CYP82X1),conversion as substrate by AT1 (AT1)
COc1ccc(C(OC(C)=O)C2c3c(cc4c(c3OC)OCO4)CCN2C)c(C=O)c1OC (centres unmarked) [3-O-acetylpapaveroxine],yielding papaveroxine,form narcotine hemiacetal,–,–,–
"COc1ccc2c(c1OC)C[N+]1(C)CCc3cc4c(c(O)c3C1C2O)OCO4 [(S)-1,13-dihydroxy-N-methylcanadine]",–,–,No products were detected,No products were detected,forming (S)-1-hydroxy-13-O-acetyl-N-methylcanadine
